Laboratory results from patent US12163950B2, “Synthetic odorant receptors” (Duke University, priority 2018, dated 2024).

How the values were obtained:
[1] = test system: Mut-OR10; test: cAMP-mediated luciferase reporter gene assay, triple Arg mutant of consensus OR10; format: cell-based, human; conditions: FIG. 10F
Experimental: (§1) FIG. 10A-B. Consensus OR1, OR6, OR10 and OR52 are functionally expressed in Hana3A cells, as indicated by cAMP-mediated luciferase assays. (A) Heatmap of ORs responses to 30 uM odorant selected from a previously screened panel of 320 compounds. Luciferase activity was normalized for each OR by setting as 1.0 the highest response value, and 0 as the lowest response value. (B) Dose-response curve of consensus ORs to candidate ligands ranging from 0 to 316 uM or 1 mM. Cells transfected with pCI vector were used as a negative control. Luciferase activity was normalized by setting as 1.0 the highest response value, and 0 as the lowest response value of each experiment. n=3, error bars indicate SEM.
(§2) FIG. 10C-D-E-F. Improvement of OR expression by mutations in TM1 and Helix 8. (C) Homology model of hOR10. Each TM is highlighted in a colored tubes and residues D511.60, S521.61, H531.62 and E294H8 are represented in licorice (pink). (D) Zoom on the residues 1.60, 1.61, 1.62, H8 mutated for hOR1 (red), hOR10 (blue), hOR51 (green) and hOR52 (pink). […]
(§3) The consensus ORs already show a clear increase of cell surface expression in comparison to naturally-occurring ORs. […] Experiments evaluated the cell surface expression of the consensus ORs with their corresponding triple Arg mutants, including a well-studied non-olfactory class A GPCR, the muscarinic 3 receptor (M3) (FIG. 10E). […]

[2] = test system: Mut-OR52; test: cAMP-mediated luciferase reporter gene assay, triple Arg mutant of consensus OR52; format: cell-based, human; conditions: FIG. 10F
Experimental: as §1, §2, §3

response of Mut-OR10 compared to consensus OR10 [1] | response of Mut-OR10 to its agonist (luciferase activity) ([1]; dose-response) | response of Mut-OR52 to its agonist (luciferase activity) [2] | Compound
diminished compared to OR10 | responded | – | CC(=O)/C=C/C1=C(C)CCCC1(C)C [0-ionone, β-ionone]
– | – | responded | CCCCCCCCC(=O)O [nonanoic acid]
